Source: patent US6635771B2, “N-benzhydryl indole compounds” (Wyeth, priority 2001, dated 2003)

Biological target: T1, cPLA2 (Homo sapiens, UniProt P47712)
T1 sequence (P47712 1-749): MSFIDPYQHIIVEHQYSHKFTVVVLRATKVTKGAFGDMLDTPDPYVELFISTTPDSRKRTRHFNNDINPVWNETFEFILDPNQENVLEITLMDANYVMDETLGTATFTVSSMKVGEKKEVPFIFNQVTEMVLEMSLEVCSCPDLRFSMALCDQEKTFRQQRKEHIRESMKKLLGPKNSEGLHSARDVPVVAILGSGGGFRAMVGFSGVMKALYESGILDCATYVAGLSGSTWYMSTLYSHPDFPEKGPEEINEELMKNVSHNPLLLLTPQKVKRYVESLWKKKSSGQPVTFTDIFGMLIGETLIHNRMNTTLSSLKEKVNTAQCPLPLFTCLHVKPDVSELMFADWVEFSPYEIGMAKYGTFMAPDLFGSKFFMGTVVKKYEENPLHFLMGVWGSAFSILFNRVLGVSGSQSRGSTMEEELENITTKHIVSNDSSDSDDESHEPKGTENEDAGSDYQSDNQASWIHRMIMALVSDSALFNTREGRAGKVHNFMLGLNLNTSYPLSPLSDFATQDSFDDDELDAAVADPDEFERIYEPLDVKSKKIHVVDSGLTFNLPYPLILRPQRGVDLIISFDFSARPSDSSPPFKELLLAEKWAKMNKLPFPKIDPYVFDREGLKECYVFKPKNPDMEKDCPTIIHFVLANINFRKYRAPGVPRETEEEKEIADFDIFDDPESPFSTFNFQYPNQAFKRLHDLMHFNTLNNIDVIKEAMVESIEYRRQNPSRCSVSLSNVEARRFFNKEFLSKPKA
Assay: Coumarine Assay
Type: biochemical
Details: 60 μM 7-hydroxycoumarinyl 6-heptenoate substrate, 4 μg cPLA2, pH 7.5, fluorescence ex 360 nm / em 460 nm; read-out: Coumarin IC50

Structure (SMILES)	IC50
O=C(O)c1ccc(OCCc2c(CCNS(=O)(=O)Cc3c(Cl)cccc3Cl)n(C(c3ccccc3)c3ccccc3)c3ccc(Cl)cc23)cc1 [Example 73, 4-{2-[1-Benzhydryl-5-chloro-2-(2-{[(2-dichlorobenzyl)sulfonyl]amino}ethyl)-1H-indol-3-yl]ethoxy}benzoic acid]	0.3 µM
O=C(O)c1ccc(OCCc2c(CCNS(=O)(=O)Cc3ccc(Cl)c(Cl)n3)n(C(c3ccccc3)c3ccccc3)c3ccc(Cl)cc23)cc1 [Example 76]	0.4 µM
COc1cccc(CS(=O)(=O)NCCc2c(CCOc3ccc(C(=O)O)cc3)c3cc(Cl)ccc3n2C(c2ccccc2)c2ccccc2)c1 [Example 77, 4-{2-[1-Benzhydryl-5chloro-2-(2-{[(3-methoxybenzyl)sulfonyl]amino}ethyl)-1H-indol-3-yl]ethoxy}benzoic acid]	0.48 µM
O=C(O)c1ccc(OCCc2c(CCNS(=O)(=O)Cc3c(Cl)cccc3Cl)n(C(c3ccccc3)c3ccccc3)c3ccc(Cl)cc23)cc1 [Example 80, 4-{2-[1-Benzhydryl-5-chloro-2-(2-{[(2,6-dichlorobenzyl)sulfonyl]amino}ethyl)-1H-indol-3-yl]ethoxy}benzoic acid]	3.7 µM
Cc1cccc(C)c1SCS(=O)(=O)NCCc1c(CCOc2ccc(C(=O)O)cc2)c2cc(Cl)ccc2n1C(c1ccccc1)c1ccccc1 [Example 82]	0.5 µM
COc1ccccc1SCS(=O)(=O)NCCc1c(CCOc2ccc(C(=O)O)cc2)c2cc(Cl)ccc2n1C(c1ccccc1)c1ccccc1 [Example 83]	0.45 µM
Cc1cccc(Cl)c1SCS(=O)(=O)NCCc1c(CCOc2ccc(C(=O)O)cc2)c2cc(Cl)ccc2n1C(c1ccccc1)c1ccccc1 [Example 84]	0.5 µM
COc1ccc(SCS(=O)(=O)NCCc2c(CCOc3ccc(C(=O)O)cc3)c3cc(Cl)ccc3n2C(c2ccccc2)c2ccccc2)cc1OC [Example 86]	0.6 µM
O=C(O)c1ccc(OCCc2c(CCNS(=O)(=O)CCN3CCOCC3)n(C(c3ccccc3)c3ccccc3)c3ccc(Cl)cc23)cc1 [Example 87, 4-(2-{1-Benzhydryl-5-chloro-2-[2-(2-morpholin-4-ylethanesulfonylamino)-ethyl]-1H-indol-3-yl}-ethoxy)-benzoic acid]	1.2 µM
O=C(O)c1ccc(OCCc2c(CCNS(=O)(=O)CCN3CCC4(CC3)OCCO4)n(C(c3ccccc3)c3ccccc3)c3ccc(Cl)cc23)cc1 [Example 90, 4-(2-{1-benzhydryl-5-chloro-2-[2-({[2-(1,4-dioxa-8-azaspiro[4.5]dec-8-yl)ethyl]sulfonyl}amino)ethyl]-1H-indol-3-yl}ethoxy)benzoic acid]	0.65 µM
O=C(O)c1ccc(OCCc2c(CCNS(=O)(=O)CCN3CCN(c4ccccn4)CC3)n(C(c3ccccc3)c3ccccc3)c3ccc(Cl)cc23)cc1 [Example 91, 4-[2-(1-benzhydryl-5-chloro-2-{2-[({2-[4-(2-pyridinyl)-1-piperazinyl]ethyl}sulfonyl)amino]ethyl}-1H-indol-3-yl)ethoxy]benzoic acid]	0.5 µM
Cc1cc(C)n(CCS(=O)(=O)NCCc2c(CCOc3ccc(C(=O)O)cc3)c3cc(Cl)ccc3n2C(c2ccccc2)c2ccccc2)n1 [Example 93, 4-(2-{1-benzhydryl-5-chloro-2-[2-({[2-(3,5-dimethyl-1H-pyrazol-1-yl)ethyl]sulfonyl}amino)ethyl]-1H-indol-3-yl}ethoxy)benzoic acid]	0.56 µM
Cc1ccn(CCS(=O)(=O)NCCc2c(CCOc3ccc(C(=O)O)cc3)c3cc(Cl)ccc3n2C(c2ccccc2)c2ccccc2)n1 [Example 94, 4-(2-{1-benzhydryl-5-chloro-2-[2-({[2-(3-methyl-1H-pyrazol-1-yl)ethyl]sulfonyl}amino)ethyl]-1H-indol-3-yl}ethoxy)benzoic acid]	0.8 µM
Cc1cnn(CCS(=O)(=O)NCCc2c(CCOc3ccc(C(=O)O)cc3)c3cc(Cl)ccc3n2C(c2ccccc2)c2ccccc2)c1 [Example 95, 4-(2-{1-benzhydryl-5-chloro-2-[2-({[2-(4-methyl-1H-pyrazol-1-yl)ethyl]sulfonyl}amino)ethyl]-1H-indol-3-yl}ethoxy)benzoic acid]	0.85 µM
C[C@@H]1CCC[C@H](C)N1CCS(=O)(=O)NCCc1c(CCOc2ccc(C(=O)O)cc2)c2cc(Cl)ccc2n1C(c1ccccc1)c1ccccc1 [Example 96, 4-[2-(1-benzhydryl-5-chloro-2-{2-[({2-[(2R,6S)-2,6-dimethyl-1-piperidinyl]ethyl}sulfonyl)amino]ethyl}-1H-indol-3-yl)ethoxy]benzoic acid]	0.95 µM
O=C(O)c1ccc(OCCc2c(CCNS(=O)(=O)CCN3CCNC3=S)n(C(c3ccccc3)c3ccccc3)c3ccc(Cl)cc23)cc1 [Example 97, 4-(2-{1-benzhydryl-5-chloro-2-[2-({[2-(2-thioxo-1-imidazolidinyl)ethyl]sulfonyl}amino)ethyl]-1H-indol-3-yl}ethoxy)benzoic acid]	0.95 µM
O=C(O)c1ccc(OCCc2c(CCNS(=O)(=O)CCn3ncnn3)n(C(c3ccccc3)c3ccccc3)c3ccc(Cl)cc23)cc1 [Example 103, 4-(2-{1-benzhydryl-5-chloro-2-[2-(2-tetrazol-2-yl-ethanesulfonylamino)-ethyl]-1H-indol-3-yl}ethoxy)benzoic acid]	1.1 µM
O=C(O)c1ccc(OCCc2c(CCNS(=O)(=O)CCn3cnnn3)n(C(c3ccccc3)c3ccccc3)c3ccc(Cl)cc23)cc1 [Example 104, 4-(2-{1-benzhydryl-5-chloro-2-[2-(2-tetrazol-1-yl-ethanesulfonylamino)-ethyl]-1H-indol-3-yl}ethoxy)benzoic acid]	1.1 µM

The remaining compounds from weak to strong by IC50, led by results:

IC50	Structure (SMILES)
0.47 µM	O=C(O)c1ccc(OCCc2c(CCNS(=O)(=O)CSc3ccccc3)n(C(c3ccccc3)c3ccccc3)c3ccc(Cl)cc23)cc1 [Example 81, 4-(2-{1-benzhydryl-5-chloro-2-[2-({[(phenylsulfanyl)methyl]sulfonyl}amino)ethyl]-1H-indol-3-yl}ethoxy)benzoic acid]
0.4 µM	O=C(O)c1ccc(OCCc2c(CCNS(=O)(=O)Cc3ccc(Cl)nc3)n(C(c3ccccc3)c3ccccc3)c3ccc(Cl)cc23)cc1 [Example 75, 4-(2-{1-benzhydryl-5-chloro-2-[2-({[(6-chloro-3-pyridinyl)methyl]sulfonyl}amino)ethyl]-1H-indol-3-yl}ethoxy)benzoic acid]
0.4 µM	O=C(O)c1ccc(OCCc2c(CCNS(=O)(=O)CSc3cc(Cl)cc(Cl)c3)n(C(c3ccccc3)c3ccccc3)c3ccc(Cl)cc23)cc1 [Example 85]
0.38 µM	O=C(O)c1ccc(OCCc2c(CCNS(=O)(=O)CCNc3ccccc3)n(C(c3ccccc3)c3ccccc3)c3ccc(Cl)cc23)cc1 [Example 89, 4-(2-{1-Benzhydryl-5-chloro-2-[2-(2-phenylamino-ethanesulfonylamino)-ethyl]-1H-indol-3-yl}-ethoxy)-benzoic acid]
0.34 µM	Cc1cc(C)cc(CS(=O)(=O)NCCc2c(CCOc3ccc(C(=O)O)cc3)c3cc(Cl)ccc3n2C(c2ccccc2)c2ccccc2)c1 [Example 78, 4-{2-[1-Benzhydryl-5-chloro-2-(2-{[(3,5-dimethylbenzyl)sulfonyl]amino}ethyl)-1H-indol-3-yl]ethoxy)benzoic acid]
0.28 µM	O=C(O)c1ccc(OCCc2c(CCNS(=O)(=O)Cc3c(F)cccc3F)n(C(c3ccccc3)c3ccccc3)c3ccc(Cl)cc23)cc1 [Example 74]
0.22 µM	O=C(O)c1ccc(OCCc2c(CCNS(=O)(=O)Cc3ccc(Cl)c(Cl)c3)n(C(c3ccccc3)c3ccccc3)c3cc(Cl)ccc23)cc1 [Example 106, 4-(2-{1 -Benzhydryl-6-chloro-2-[2-(3,4-dichloro-phenylmethanesulfonylamino)-ethyl]-1H-indol-3-yl}-ethoxy)-benzoic acid]
0.19 µM	Cc1cc(C)n(CCS(=O)(=O)NCCc2c(CCCc3ccc(C(=O)O)cc3)c3cc(Cl)ccc3n2C(c2ccccc2)c2ccccc2)n1 [Example 102]
0.15 µM	Cc1ccccc1CS(=O)(=O)NCCc1c(CCOc2ccc(C(=O)O)cc2)c2cc(Cl)ccc2n1C(c1ccccc1)c1ccccc1 [Example 79, 4-{2-[1-Benzhydryl-5-chloro-2-(2-{[(2-methylbenzyl)sulfonyl]amino}ethyl)-1H-indol3-yl]ethoxy}benzoic acid]
0.12 µM	O=C(O)c1ccc(CCCc2c(CCNS(=O)(=O)CCN3CCOCC3)n(C(c3ccccc3)c3ccccc3)c3ccc(Cl)cc23)cc1 [Example 100, 4-(3-{1-Benzhydryl-5-chloro-2-[2-(2-morpholin-4-yl-ethanesulfonylamino)-ethyl]-1H-indol-3-yl}-propyl)-benzoic acid]
0.1 µM	CC1CCCC(C)N1CCS(=O)(=O)NCCc1c(CCCc2ccc(C(=O)O)cc2)c2cc(Cl)ccc2n1C(c1ccccc1)c1ccccc1 (centres unmarked) [Example 101, 4-[3-(1-Benzhydryl-5-chloro-2-{2-[2-(2,6-dimethyl-piperidin-1-yl)-ethanesulfonylamino]-ethyl}-1H-indol-3-yl)-propyl]-benzoic acid]
